One test concerns the target T1, Liver carboxylesterase 1 (Homo sapiens, UniProt P23141).
T1 sequence (P23141 whole entry): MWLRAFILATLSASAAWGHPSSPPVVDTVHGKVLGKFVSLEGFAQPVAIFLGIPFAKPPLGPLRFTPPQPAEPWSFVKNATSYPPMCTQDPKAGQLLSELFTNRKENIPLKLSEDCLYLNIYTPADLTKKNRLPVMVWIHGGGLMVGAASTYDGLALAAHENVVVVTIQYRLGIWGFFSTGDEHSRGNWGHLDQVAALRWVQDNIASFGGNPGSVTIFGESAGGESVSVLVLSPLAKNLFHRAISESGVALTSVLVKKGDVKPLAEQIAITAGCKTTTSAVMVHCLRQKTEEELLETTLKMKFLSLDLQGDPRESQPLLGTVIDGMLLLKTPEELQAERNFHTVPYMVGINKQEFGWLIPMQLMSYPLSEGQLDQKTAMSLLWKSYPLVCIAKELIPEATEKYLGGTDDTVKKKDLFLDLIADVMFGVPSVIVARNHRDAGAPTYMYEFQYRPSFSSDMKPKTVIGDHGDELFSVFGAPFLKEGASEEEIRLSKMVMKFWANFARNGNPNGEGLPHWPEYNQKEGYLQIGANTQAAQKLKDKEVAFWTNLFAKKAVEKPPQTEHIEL
Put plainly: Inhibition of TGH.

Test [1] in a line: Selectivity ratio of IC50 for KIAA1363 to IC50 for rat FAAH.
Test [2] addresses T2, Neutral cholesterol ester hydrolase 1 (Homo sapiens, UniProt Q6PIU2).
T2 sequence (Q6PIU2 whole entry): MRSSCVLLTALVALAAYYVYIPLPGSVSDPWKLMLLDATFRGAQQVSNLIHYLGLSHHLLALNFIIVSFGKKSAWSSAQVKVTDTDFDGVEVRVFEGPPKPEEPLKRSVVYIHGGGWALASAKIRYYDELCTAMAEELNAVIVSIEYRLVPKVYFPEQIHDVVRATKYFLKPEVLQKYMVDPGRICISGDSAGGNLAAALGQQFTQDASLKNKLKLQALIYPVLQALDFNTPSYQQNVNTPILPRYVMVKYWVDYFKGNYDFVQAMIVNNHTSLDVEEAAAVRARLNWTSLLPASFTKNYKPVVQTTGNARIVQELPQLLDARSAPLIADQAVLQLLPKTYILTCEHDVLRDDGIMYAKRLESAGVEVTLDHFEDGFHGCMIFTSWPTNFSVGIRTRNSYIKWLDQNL
Put plainly: Inhibition of KIAA1363.

The target of test [3] is T3, Fatty-acid amide hydrolase 1 (Rattus norvegicus, UniProt P97612).
T3 sequence (P97612 whole entry): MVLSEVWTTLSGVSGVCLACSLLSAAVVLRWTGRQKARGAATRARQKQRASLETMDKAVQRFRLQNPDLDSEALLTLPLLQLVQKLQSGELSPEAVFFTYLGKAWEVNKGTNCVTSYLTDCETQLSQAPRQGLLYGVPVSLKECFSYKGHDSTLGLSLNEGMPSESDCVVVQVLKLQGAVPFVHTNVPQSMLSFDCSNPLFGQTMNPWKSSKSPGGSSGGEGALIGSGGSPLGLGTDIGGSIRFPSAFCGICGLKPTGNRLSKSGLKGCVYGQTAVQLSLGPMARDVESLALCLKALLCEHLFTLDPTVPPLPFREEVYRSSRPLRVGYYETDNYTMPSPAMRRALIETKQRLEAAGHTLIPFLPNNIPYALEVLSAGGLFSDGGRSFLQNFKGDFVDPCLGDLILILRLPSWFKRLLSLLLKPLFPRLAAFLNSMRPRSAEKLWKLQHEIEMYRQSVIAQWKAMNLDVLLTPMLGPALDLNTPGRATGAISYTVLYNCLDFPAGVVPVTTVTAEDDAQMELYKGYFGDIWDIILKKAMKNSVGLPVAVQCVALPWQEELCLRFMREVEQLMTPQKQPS
Kind of test: Inhibition of rat FAAH.

Test [4] can be described thus: Selectivity ratio of IC50 for TGH to IC50 for rat FAAH.

This passage reports IC50 and Ratio IC50 results from ChEMBL document CHEMBL1151779, “Exploration of a fundamental substituent effect of alpha-ketoheterocycle enzyme inhibitors: Potent and selective inhibitors of fatty acid amide hydrolase” (Bioorg Med Chem Lett, 2008).

SMILES strings stand for the structures. A value given as a limit tells only on which side of the number the result lay.

Broadly, the IC50 is the concentration at which inhibition is half-maximal. A low value points to greater potency. As to `O=C(CCCCCCc1ccccc1)c1nc(-c2ccncc2)co1`, the IC50 against Liver carboxylesterase 1 is 700 nM; in test [2] it was above 100 µM; in test [3], 140 nM. The figures for the Ratio IC50 in test [1] and in test [4] were 1500 and 5, respectively.
As to `O=C(O)c1cnc(C(=O)CCCCCCc2ccccc2)o1`, the Ratio IC50 in test [1] and in test [4] was above 100 throughout. In addition, in test [3], inhibition was half-maximal at 900 nM (IC50).
Take `O=C(O)c1coc(C(=O)CCCCCCc2ccccc2)n1`: the IC50 against Liver carboxylesterase 1 is 2500 nM; in test [2], above 100 µM; in test [3] it was 500 nM. Besides, the Ratio IC50 is above 3000 in test [1] and 5 in test [4].
Regarding `O=C(CCCCCCc1ccccc1)c1nc(C(F)(F)F)co1`, the IC50 on Liver carboxylesterase 1 came to 60 nM; in test [2], 10 µM; in test [3], 400 nM. The Ratio IC50 in test [1] was above 200.
For `O=C(CCCCCCc1ccccc1)c1nc(-c2ccccn2)co1`, the IC50 was 10000 nM at Liver carboxylesterase 1, above 100 µM in test [2] and 30 nM in test [3]. In addition, the Ratio IC50 in test [1] amounted to 25; in test [4] it was 330.
The matching figures for `N#Cc1coc(C(=O)CCCCCCc2ccccc2)n1`: 30 nM, 30 µM, 20 nM, above 700 and 1.5.
On to `O=C(CCCCCCc1ccccc1)c1ncc(C(F)(F)F)o1`, for which the Ratio IC50 in test [1] is above 1400; in test [4] it was 3. In addition, inhibition in test [3] was half-maximal at 70 nM (IC50).
